In assay [1] the test system is T1, CreSAMT1.
T1 construct: His-tagged (pET6xHN), E. coli BL21(DE3), Ni-IDA purified; tag cleavage not mentioned
Briefly: GC-MS of methyl ester product, Michaelis-Menten fit. As to conditions: co-substrate SAM, Tris-HCl, KCl, pH 7.0, 35 °C. Format: biochemical, Citrus reticulata. An excerpt:
GC-MS of methyl ester product, Michaelis-Menten fit on CreSAMT1

Assay [2] relates to T2, CreSAMT2.
T2 construct: His-tagged (pET6xHN), E. coli BL21(DE3), Ni-IDA purified; tag cleavage not mentioned
The assay is described as above. Format: biochemical, Citrus reticulata. As to conditions: co-substrate SAM, Tris-HCl, KCl, pH 7.0, 25 °C. An excerpt:
GC-MS of methyl ester product, Michaelis-Menten fit on CreSAMT2

In general, Km refers to the concentration of substrate that gives half-maximal velocity. Consider `O=C(O)c1ccccc1O` [SA, salicylic acid], for which the Km in assay [1] came out at 101 ± 33.5 µM; in assay [2], 53 ± 11.2 µM.
On to `CNc1ccccc1C(=O)O` [NMA, N-methyl-2-aminobenzoic acid], for which the values for the Km in assay [1] and in assay [2] were 164 ± 98.4 µM and 128 ± 58.9 µM, respectively.
Regarding `Nc1ccccc1C(=O)O` [AA, anthranilate], the Km in assay [1] (sodium salt used) stood at 4.82 ± 1.53 µM; in assay [2] (sodium salt used), 18 ± 1.9 µM.
Regarding `O=C(O)c1ccccc1` [BA, benzoic acid], the Km was 61.9 ± 30.7 µM in assay [1] and 25 ± 6.89 µM in assay [2].

The values are drawn from PMC12968138, “CreSAMT1 is mainly responsible for the biosynthesis of characteristic aroma compound dimethyl anthranilate in Citrus reticulata ‘Chachiensis’” (Horticulture Research, 2025).
